Values joined by “and” are separate entries in the source; they are usually repeats but may differ in a detail not shown here. Equal entries are not always repeated.
Key:
Test in all cases: Adapta Universal Kinase Assay, panel of 486 biochemical kinase assays
Parameters in all cases: % Inhibition Average: concentration or dose not given beside the values
various kinases [1] = target: various kinases (Homo sapiens, UniProt O60331); conditions: kinase PIP5K1C; Adapta
various kinases [2] = target: various kinases (Homo sapiens, UniProt Q5S007, I2020T); conditions: LRRK2 I2020T
various kinases [3] = target: various kinases (Homo sapiens, UniProt P53355); conditions: DAPK1
various kinases [4] = target: various kinases (Homo sapiens, UniProt O75747); conditions: PIK3C2G (PI3K-C2 gamma)
various kinases [5] = target: various kinases (Homo sapiens, UniProt P50750); conditions: CDK9/cyclin T1
various kinases [6] = target: various kinases (Homo sapiens, UniProt Q8NEB9); conditions: PIK3C3 (hVPS34)
various kinases [7] = target: various kinases (Homo sapiens, UniProt O60285); conditions: NUAK1 (ARK5)
various kinases [8] = target: various kinases (Homo sapiens, UniProt Q9NYA1); conditions: kinase SPHK1; Adapta
various kinases [9] = target: various kinases (Homo sapiens, UniProt Q9UBF8); conditions: PI4KB (PI4K beta)
various kinases [10] = target: various kinases (Homo sapiens, UniProt O14986); conditions: kinase PIP5K1B; Adapta
various kinases [11] = target: various kinases (Homo sapiens, UniProt P42338)
various kinases [12] = target: various kinases (Homo sapiens, UniProt Q5S007, R1441C); conditions: LRRK2 R1441C
various kinases [13] = target: various kinases (Homo sapiens, UniProt P50613); conditions: CDK7/cyclin H/MNAT1
various kinases [14] = target: various kinases (Homo sapiens, UniProt O00443); conditions: PIK3C2A (PI3K-C2 alpha)
various kinases [15] = target: various kinases (Homo sapiens, UniProt Q99755); conditions: PIP5K1A
various kinases [16] = target: various kinases (Homo sapiens, UniProt O00750); conditions: PIK3C2B (PI3K-C2 beta)
various kinases [17] = target: T1, various kinases (Homo sapiens, UniProt Q9NRA0); conditions: kinase SPHK2; Adapta
T1 sequence (Q9NRA0 1-654): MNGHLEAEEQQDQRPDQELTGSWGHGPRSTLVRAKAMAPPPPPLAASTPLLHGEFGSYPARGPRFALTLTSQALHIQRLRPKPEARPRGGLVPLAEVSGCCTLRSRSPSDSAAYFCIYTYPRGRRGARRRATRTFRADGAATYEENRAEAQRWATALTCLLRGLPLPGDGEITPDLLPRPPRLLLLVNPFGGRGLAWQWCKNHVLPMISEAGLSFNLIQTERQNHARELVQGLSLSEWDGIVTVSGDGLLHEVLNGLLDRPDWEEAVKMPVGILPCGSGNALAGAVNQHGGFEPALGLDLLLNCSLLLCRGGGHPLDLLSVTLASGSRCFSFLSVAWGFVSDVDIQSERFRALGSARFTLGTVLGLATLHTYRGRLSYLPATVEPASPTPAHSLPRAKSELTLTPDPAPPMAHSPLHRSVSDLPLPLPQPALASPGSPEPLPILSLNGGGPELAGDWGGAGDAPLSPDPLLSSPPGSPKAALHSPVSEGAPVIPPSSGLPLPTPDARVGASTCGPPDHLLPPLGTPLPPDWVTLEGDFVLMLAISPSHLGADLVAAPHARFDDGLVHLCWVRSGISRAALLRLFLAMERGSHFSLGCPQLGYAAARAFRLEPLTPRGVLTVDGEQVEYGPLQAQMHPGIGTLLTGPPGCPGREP

various kinases [18] = target: various kinases (Homo sapiens, UniProt Q8TCG2); conditions: PI4K2B (PI4K2 beta)
various kinases [19] = target: various kinases (Homo sapiens, UniProt Q5S007)
various kinases [20] = target: various kinases (Homo sapiens, UniProt P51617); conditions: IRAK1
various kinases [21] = target: various kinases (Homo sapiens, UniProt P42336, E545K); conditions: PIK3CA E545K/PIK3R1 (p110 alpha E545K/p85 alpha)
various kinases [22] = target: various kinases (Homo sapiens, UniProt P48426); conditions: PIP4K2A
various kinases [23] = target: various kinases (Homo sapiens, UniProt Q8TF76); conditions: GSG2 (Haspin)

Chain of various kinases (Homo sapiens, UniProt Q5S007) (Q5S007 whole entry): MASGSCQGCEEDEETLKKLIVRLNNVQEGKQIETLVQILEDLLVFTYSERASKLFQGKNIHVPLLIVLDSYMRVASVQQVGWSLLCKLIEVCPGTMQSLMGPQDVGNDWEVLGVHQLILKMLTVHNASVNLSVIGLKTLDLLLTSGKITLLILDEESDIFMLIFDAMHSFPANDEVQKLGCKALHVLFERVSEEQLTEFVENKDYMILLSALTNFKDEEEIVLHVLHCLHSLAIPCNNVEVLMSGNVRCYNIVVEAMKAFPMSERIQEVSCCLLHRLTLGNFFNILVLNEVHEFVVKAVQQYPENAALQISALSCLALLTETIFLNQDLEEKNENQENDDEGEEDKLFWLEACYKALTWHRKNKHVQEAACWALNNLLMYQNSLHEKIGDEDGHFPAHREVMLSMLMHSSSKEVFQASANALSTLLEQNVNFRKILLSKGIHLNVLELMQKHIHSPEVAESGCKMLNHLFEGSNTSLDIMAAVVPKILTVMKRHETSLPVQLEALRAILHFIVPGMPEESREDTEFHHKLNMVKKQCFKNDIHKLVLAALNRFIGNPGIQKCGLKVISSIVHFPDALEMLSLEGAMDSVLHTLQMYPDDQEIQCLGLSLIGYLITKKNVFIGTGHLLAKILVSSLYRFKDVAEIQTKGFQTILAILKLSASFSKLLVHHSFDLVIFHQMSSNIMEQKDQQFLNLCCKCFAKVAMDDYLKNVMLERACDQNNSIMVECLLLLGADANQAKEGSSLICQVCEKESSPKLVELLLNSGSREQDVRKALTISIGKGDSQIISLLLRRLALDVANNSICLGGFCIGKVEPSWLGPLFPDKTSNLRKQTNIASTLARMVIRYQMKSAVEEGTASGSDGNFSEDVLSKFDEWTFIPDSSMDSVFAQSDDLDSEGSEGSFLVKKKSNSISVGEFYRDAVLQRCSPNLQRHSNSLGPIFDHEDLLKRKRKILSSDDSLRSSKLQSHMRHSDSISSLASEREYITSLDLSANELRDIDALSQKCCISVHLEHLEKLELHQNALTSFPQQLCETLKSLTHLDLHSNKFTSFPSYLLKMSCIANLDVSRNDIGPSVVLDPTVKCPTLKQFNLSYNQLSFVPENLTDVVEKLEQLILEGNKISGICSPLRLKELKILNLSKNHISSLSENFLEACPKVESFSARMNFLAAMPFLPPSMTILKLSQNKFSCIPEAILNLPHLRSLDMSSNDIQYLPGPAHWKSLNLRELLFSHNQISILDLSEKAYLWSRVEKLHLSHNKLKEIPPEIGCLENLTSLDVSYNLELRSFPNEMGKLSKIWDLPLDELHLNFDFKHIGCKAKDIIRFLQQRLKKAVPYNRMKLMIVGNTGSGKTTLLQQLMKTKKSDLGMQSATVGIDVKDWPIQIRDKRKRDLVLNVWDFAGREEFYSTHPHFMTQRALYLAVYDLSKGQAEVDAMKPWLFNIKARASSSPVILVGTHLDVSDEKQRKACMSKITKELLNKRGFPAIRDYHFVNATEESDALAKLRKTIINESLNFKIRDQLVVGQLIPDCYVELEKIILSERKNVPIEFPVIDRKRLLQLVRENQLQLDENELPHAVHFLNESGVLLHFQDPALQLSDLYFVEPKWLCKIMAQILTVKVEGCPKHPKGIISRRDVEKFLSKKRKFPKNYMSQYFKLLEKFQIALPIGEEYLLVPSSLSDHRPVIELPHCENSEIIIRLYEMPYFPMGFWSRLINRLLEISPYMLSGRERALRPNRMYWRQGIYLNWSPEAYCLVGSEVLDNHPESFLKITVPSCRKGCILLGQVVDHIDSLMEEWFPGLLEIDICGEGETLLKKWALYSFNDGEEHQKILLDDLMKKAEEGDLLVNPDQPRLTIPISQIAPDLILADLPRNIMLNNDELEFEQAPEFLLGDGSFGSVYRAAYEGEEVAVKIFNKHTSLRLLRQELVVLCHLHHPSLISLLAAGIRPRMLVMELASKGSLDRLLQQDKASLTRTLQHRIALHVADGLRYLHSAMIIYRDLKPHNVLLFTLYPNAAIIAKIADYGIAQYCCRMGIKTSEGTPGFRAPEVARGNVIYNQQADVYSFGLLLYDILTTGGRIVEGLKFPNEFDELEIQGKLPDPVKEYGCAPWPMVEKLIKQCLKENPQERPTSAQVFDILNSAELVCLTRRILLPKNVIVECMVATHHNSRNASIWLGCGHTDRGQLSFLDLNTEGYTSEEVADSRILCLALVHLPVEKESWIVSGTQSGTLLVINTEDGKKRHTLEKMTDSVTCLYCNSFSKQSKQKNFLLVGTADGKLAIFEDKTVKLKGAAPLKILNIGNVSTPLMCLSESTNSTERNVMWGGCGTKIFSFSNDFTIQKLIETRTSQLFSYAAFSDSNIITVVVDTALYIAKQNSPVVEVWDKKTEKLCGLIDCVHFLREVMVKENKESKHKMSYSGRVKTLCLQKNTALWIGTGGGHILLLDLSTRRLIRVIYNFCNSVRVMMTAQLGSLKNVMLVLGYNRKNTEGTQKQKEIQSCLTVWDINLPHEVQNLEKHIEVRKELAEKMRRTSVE
Chain of various kinases (Homo sapiens, UniProt O14986) (O14986 whole entry): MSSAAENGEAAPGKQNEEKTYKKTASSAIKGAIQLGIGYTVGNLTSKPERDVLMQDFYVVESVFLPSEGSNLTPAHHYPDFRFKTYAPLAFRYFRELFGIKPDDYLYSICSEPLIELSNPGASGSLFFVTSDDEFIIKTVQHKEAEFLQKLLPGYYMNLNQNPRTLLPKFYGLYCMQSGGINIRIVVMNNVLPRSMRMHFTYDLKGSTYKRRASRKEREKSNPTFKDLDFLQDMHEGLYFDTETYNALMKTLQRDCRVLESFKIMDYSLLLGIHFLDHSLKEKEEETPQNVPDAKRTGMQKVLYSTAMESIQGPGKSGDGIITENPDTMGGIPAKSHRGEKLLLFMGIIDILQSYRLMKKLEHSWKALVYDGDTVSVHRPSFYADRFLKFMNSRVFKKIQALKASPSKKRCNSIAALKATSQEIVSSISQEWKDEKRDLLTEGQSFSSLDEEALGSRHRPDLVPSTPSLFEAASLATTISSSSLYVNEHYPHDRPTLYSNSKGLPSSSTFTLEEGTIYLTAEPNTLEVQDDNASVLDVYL
Chain of various kinases (Homo sapiens, UniProt Q9NYA1) (Q9NYA1 whole entry): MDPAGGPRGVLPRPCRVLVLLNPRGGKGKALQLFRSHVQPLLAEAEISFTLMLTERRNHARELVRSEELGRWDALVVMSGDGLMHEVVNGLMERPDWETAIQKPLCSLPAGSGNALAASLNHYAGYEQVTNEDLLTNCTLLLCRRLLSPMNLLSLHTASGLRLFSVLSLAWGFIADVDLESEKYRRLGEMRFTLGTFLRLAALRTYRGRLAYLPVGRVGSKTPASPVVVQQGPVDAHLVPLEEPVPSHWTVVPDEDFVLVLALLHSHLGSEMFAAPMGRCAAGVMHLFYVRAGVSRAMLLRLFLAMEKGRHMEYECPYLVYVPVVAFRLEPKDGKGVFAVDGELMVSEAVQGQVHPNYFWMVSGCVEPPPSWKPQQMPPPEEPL
Chain of various kinases (Homo sapiens, UniProt P42338) (P42338 whole entry): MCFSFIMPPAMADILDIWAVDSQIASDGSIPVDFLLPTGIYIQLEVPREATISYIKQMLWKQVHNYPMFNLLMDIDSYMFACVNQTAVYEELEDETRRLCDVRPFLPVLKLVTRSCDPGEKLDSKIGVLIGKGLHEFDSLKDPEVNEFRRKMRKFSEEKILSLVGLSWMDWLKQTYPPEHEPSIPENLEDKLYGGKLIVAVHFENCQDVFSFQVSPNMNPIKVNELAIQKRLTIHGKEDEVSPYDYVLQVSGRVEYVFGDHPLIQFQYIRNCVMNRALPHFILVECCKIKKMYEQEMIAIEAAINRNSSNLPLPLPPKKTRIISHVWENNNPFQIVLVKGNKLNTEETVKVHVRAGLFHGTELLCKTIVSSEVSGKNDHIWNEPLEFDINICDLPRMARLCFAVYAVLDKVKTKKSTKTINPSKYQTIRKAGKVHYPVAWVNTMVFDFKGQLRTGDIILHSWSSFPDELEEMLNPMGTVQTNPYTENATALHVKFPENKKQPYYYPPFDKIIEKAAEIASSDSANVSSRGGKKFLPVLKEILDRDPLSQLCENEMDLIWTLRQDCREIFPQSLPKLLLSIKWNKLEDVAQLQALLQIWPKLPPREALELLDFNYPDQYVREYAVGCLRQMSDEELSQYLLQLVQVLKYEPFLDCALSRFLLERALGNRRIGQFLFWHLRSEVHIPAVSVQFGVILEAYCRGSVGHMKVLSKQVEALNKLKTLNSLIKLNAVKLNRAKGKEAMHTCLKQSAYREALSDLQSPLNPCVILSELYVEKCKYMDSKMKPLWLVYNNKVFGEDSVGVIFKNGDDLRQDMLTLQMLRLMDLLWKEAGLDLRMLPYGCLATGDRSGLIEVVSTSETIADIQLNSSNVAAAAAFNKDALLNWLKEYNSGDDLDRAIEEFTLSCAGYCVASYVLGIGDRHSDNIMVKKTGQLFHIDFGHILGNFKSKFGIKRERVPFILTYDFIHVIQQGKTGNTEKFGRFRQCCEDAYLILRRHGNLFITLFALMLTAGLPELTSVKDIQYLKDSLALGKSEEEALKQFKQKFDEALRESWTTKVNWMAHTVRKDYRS
Chain of various kinases (Homo sapiens, UniProt Q8TCG2) (Q8TCG2 whole entry): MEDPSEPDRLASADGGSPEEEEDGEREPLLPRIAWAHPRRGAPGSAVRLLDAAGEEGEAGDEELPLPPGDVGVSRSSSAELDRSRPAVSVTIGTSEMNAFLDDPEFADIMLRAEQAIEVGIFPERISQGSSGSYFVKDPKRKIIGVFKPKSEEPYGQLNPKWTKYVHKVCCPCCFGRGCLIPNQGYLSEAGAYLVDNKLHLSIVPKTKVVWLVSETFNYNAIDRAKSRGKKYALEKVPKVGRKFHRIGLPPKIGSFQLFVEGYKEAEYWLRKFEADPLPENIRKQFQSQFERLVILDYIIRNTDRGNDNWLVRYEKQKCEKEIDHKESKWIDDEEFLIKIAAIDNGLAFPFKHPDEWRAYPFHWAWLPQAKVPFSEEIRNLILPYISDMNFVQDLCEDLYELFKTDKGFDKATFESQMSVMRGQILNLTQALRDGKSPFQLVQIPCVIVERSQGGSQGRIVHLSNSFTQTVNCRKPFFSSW
Chain of various kinases (Homo sapiens, UniProt Q5S007, R1441C) (Q5S007 whole entry R1441C): as the sequence (Q5S007 whole entry) above, with R1441C counted along it
Chain of various kinases (Homo sapiens, UniProt Q5S007, I2020T) (Q5S007 whole entry I2020T): as the sequence (Q5S007 whole entry) above, with I2020T counted along it

COc1ccc2c(c1)[C@]1(C[C@H]1c1ccc3c(/C=C/c4ccc(CN5C[C@@H](C)O[C@@H](C)C5)cc4)n[nH]c3c1)C(=O)N2 [CFI-400945]
% Inhibition Average (various kinases [1]): 8% | % Inhibition Duplicate #1 (various kinases [1]): 8% | % Inhibition Duplicate #2 (various kinases [1]): 8% | % Inhibition (various kinases [2]): 44% and 46% | % Inhibition (various kinases [3]): 2% and 0% | % Inhibition (various kinases [4]): -1% and -6% | % Inhibition (various kinases [5]): 17% and 14% | % Inhibition (various kinases [6]): 8% and 15% | % Inhibition (various kinases [7]): 66% and 65% | IC50 (various kinases [7]): 272 nM | % Inhibition Average (various kinases [8]): -12% | % Inhibition Duplicate #1 (various kinases [8]): -11% | % Inhibition Duplicate #2 (various kinases [8]): -14% | % Inhibition (various kinases [9]): 3% and 11% | % Inhibition Average (various kinases [10]): -1% | % Inhibition Duplicate #1 (various kinases [10]): 2% | % Inhibition Duplicate #2 (various kinases [10]): -3% | % Inhibition (various kinases [11]; PIK3CB/PIK3R1 (p110 beta/p85 alpha)): 4% and 3% | % Inhibition (various kinases [11]; PIK3CB/PIK3R2 (p110 beta/p85 beta)): 12% and 6% | % Inhibition (various kinases [12]): 35% and 42% | % Inhibition (various kinases [13]): -11% and -6% | % Inhibition (various kinases [14]): 0% and 1% | % Inhibition (various kinases [15]): -3% and 4% | % Inhibition (various kinases [16]): 2% and -1% | % Inhibition Average (various kinases [17]): -20% | % Inhibition Duplicate #1 (various kinases [17]): -15% | % Inhibition Duplicate #2 (various kinases [17]): -24% | % Inhibition (various kinases [18]): -13% and -11% | % Inhibition (various kinases [19]; LRRK2): 34% and 26% | % Inhibition (various kinases [19]; LRRK2 FL): 43% and 42% | % Inhibition (various kinases [20]): -8% and -12% | % Inhibition (various kinases [21]): -5% and -9% | % Inhibition (various kinases [22]): 5% and 10% | % Inhibition (various kinases [23]): -7% and 3%

— PMC5762315, “Inhibition of polo-like kinase 4 (PLK4): a new therapeutic option for rhabdoid tumors and pediatric medulloblastoma” (Oncotarget, 2017)
